Measured values published in BindingDB's records for doi:10.1021/jm00161a009 (1986).

Biological target: T1, Carnitine palmitoyl transferase I liver isoform (Sus scrofa, UniProt Q9MYX2)
T1 sequence (Q9MYX2 whole entry): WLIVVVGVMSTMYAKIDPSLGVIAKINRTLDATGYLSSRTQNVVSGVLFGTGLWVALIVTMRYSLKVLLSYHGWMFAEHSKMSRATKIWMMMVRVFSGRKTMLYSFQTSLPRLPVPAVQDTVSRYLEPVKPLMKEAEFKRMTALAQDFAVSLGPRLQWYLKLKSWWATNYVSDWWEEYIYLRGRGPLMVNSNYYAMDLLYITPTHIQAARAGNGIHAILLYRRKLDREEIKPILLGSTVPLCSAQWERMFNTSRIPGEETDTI
Test: ChEBML_44012
Method: Compound was tested for its inhibitory activity against carnitine palmitoyl transferase-A (CPT-A)

Compound | IC50
CCCCCCCCCCCCCCC1(C(=O)OC)CO1 (racemic) [2-Tetradecyl-oxirane-2-carboxylic acid methyl ester] | 300 nM
CCCCCCCCCCC1(C(=O)OC)CO1 (configuration not stated) [2-Decyl-oxirane-2-carboxylic acid methyl ester] | 680 nM
CCCCCCCCCCCCC1(C(=O)OC)CO1 (configuration not stated) [2-Dodecyl-oxirane-2-carboxylic acid methyl ester] | 600 nM
CCCCCCC1(C(=O)OC)CO1 (configuration not stated) [2-Hexyl-oxirane-2-carboxylic acid methyl ester] | 136000 nM
CCCCCCCCCCCCCC1(C(=O)OC)CO1 (configuration not stated) [2-Tridecyl-oxirane-2-carboxylic acid methyl ester] | 500 nM
CCCCCCCCCCCC1(C(=O)OC)CO1 (configuration not stated) [2-Undecyl-oxirane-2-carboxylic acid methyl ester] | 1160 nM
CCCCCCCCCCCCCCC1(C(=O)O)CO1 (stereo not drawn) [(+/-)2-Tetradecyl-oxirane-2-carboxylic acid] | 900 nM
